Target: T1, human GPR84 receptor (Homo sapiens, UniProt Q9NQS5)
T1 construct: host or cells: HEK293, transient transfection
Experiment: Gαi biosensor BRET assay in HEK293 cells (antagonism of ZQ-16)
Assay type: cell-based
Conditions: for inhibition at 10 µM: HEK293, single concentration 10 μM (designated F); for IC50: HEK293 cells, antagonism of 200 nmol/L ZQ-16; for inhibition at 2 µM: HEK293, single concentration 2 μM (designated A); for inhibition at 25 µM: HEK293, single concentration 25 μM (designated I)
Summary of the method: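 Antagonist mode: test compound 5 min at 37° C, followed by ZQ-16 agonist (200 nmol/L, 5 min, room temperature), in HEK293 cells transfected with GPR84 plus Rluc8-tagged Gαi2, GFP10-Gγ2 and Gβ1. Readout as GFP10/Rluc8 emission ratio after 5 μmol/L coelenterazine 400A, net of Rluc8-only and vehicle signal.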

T1 sequence (Q9NQS5 whole entry): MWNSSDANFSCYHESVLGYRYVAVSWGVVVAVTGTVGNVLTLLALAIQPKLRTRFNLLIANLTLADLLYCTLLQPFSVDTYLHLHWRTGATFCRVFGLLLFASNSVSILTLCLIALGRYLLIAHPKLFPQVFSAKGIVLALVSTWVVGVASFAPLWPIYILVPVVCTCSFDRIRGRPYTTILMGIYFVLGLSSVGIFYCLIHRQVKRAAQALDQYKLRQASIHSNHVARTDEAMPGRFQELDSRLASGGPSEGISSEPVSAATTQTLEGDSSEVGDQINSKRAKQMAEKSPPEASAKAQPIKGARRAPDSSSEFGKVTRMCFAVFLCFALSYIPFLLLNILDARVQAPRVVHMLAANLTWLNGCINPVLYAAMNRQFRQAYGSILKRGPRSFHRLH

Structure (SMILES)	inhibition at 10 µM	also measured
Cc1cc(C#CCN2CC(C)(C)C2)cnc1-c1nnnn1CC1OCC(C)(C)CO1 [Compound I-836]	50 to 75%	
Cc1cc(N2CCN(Cc3ccccn3)CC2)ccc1-c1cn(CC2CC(C)(C)O2)nn1 (stereo not shown) [Compound I-561]	> 75%	IC50: > 3000 nM
Cc1cc(N2CCC[C@H](N(C)Cc3ccccc3)C2)ccc1-c1cn(C[C@H]2CCCCO2)nn1 (stereo in doubt) [Compound I-240]	> 75%	
COC1CCN(c2ccc(-c3cn(CC4CCCCO4)nn3)c(C)c2)CC1 (stereo not shown) [Compound I-437]	25 to 50%	
Cc1cc(N2CCNCC2)ccc1-c1cn(CC2CCCCO2)nn1 (stereo not shown) [Compound I-183]	≤ 25%	
CC1(C)CN(c2ccc(-c3cn(CC4CCCCO4)nn3)c(OCCO)c2)C1 (stereo not shown) [Compound I-280]	> 75%	
Cc1cc(C#CCNC(=O)OC(C)(C)C)cnc1-c1cn(CC2CCCCO2)nn1 (stereo not shown) [Compound I-538]	> 75%	IC50: 300 to 1000 nM
CCc1cc(C#CCNC2CC2)ccc1-c1cn(CC2OCC(C)(C)CO2)nn1 [Compound I-851]	≤ 25%	
CC(C)OCC1(C)CN(c2ccc(-c3cn(CC4OCC(C)(C)CO4)nn3)c(N(C)C)c2)C1 [Compound I-754]	> 75%	IC50: 300 to 1000 nM
COC(c1cn(CC2OCC(C)(C)CO2)nn1)c1cc(C#CC2CC2)c(F)cc1C (stereo not shown) [Compound I-724]		inhibition at 2 µM: > 75%; IC50: ≤ 300 nM
COC(c1cn(CC2OCC(F)(F)CO2)nn1)c1cc(C#CC2CC2)ccc1C (stereo not shown) [Compound I-725]	> 75%	IC50: 300 to 1000 nM
Clc1ccc(C#CC2CC2)cc1-c1cn(CC2CCCCO2)nn1 (stereo not shown) [Compound I-134]	≤ 25%	
COC1CCCN(c2ccc(-c3cn(CC4CCCCO4)nn3)c(C)c2)C1 (stereo not shown) [Compound I-428]	25 to 50%	
Cc1cc(C#CC2CC2)ccc1-c1cn(CC2CCCC(=O)N2)nn1 (stereo not shown) [Compound I-516]	≤ 25%	
Cc1cc(C#CCN(C)C2CC2)ccc1-c1cn(CC2OCC(C)(C)CO2)nn1 [Compound I-698]	> 75%	IC50: 300 to 1000 nM
CC1(C)COC(Cn2cc(-c3ncc(C#CCN4CC(C)(C)C4)cc3CC(F)(F)F)nn2)OC1 [Compound I-762]		IC50: ≤ 300 nM
Cc1cc(N2CC(CF)C2)ccc1-c1cn(CC2CCCCO2)nn1 (stereo not shown) [Compound I-544]	25 to 50%	
O=C(O)c1cc(C#CC2CC2)ccc1-c1cn(CC2CCCCO2)nn1 (stereo not shown) [Compound I-309]	≤ 25%	
Cc1cc(C#CC2CC2)ccc1-c1cn(CC2OCC3(CC3)CO2)nn1 [Compound I-686]	> 75%	IC50: 300 to 1000 nM
Cc1cc(C#CC2CC2)ccc1-c1cn(CC2CC(F)(F)CCO2)nn1 (stereo not shown) [Compound I-497]	25 to 50%	
CC1(C)COC(Cn2cc(-c3ncc(C#CCNC4CC4)cc3OC3CC3)nn2)OC1 [Compound I-856]	> 75%	
CCc1cc(N2CC(C)(O)C2)ccc1-c1cn(CC2OCC(C)(C)CO2)nn1 [Compound I-641]	> 75%	IC50: 300 to 1000 nM
Cc1ccc(C#CC2CC2)cc1Cc1cn(C[C@H]2CCCCO2)nn1 [Compound I-587]	50 to 75%	IC50: 300 to 1000 nM
Cc1ccc(C#CC2CC2)cc1Oc1cn(CC2OCC(C)(C)CO2)nn1 [Compound I-773]		IC50: 300 to 1000 nM
Cc1c(-c2ccc(C#CCNc3ccccc3)cc2)nnn1CC1CCCCO1 (stereo not shown) [Compound I-235]	25 to 50%	

Structure (SMILES)	inhibition at 10 µM	also measured
Cc1ccc(C#CC2CC2)cc1-c1nnc(CC2CCCCO2)o1 (stereo not shown) [Compound I-343]	50 to 75%	
Cc1cc(N2CCN([C@@H](C)c3ccccn3)CC2)ccc1-c1cn(CC2OCC(C)(C)CO2)nn1 [Compound I-716]	> 75%	IC50: 300 to 1000 nM
Cc1cc(C#CCN2CC(C)(C)C2)cnc1-c1cn(C[C@H]2CCCCO2)nn1 [Compound I-284]	> 75%	
CC(C)C#Cc1ccc(-c2cn(CC3CCCCO3)nn2)cc1 (stereo not shown) [Compound I-57]		inhibition at 25 µM: ≤ 25%
CC1(C)COC(Cn2cnc(-c3ncc(C#CCN4CC(C)(C)C4)cc3OC3CC3)c2)OC1 [Compound I-845]	> 75%	
COC(=O)N1CCC(c2ccc(-c3cn(CC4CCCCO4)nn3)c(C)c2)CC1 (stereo not shown) [Compound I-484]	≤ 25%	
Cc1cc(N2CCC(N(C)C)CC2)ccc1-c1cn(CC2CCCCO2)nn1 (stereo not shown) [Compound I-129]	≤ 25%	
O=c1oc(CC2COCCO2)nn1-c1ccc(C#CC2CC2)cc1 (stereo not shown) [Compound I-10, 5-((1,4-dioxan-2-yl)methyl)-3-(4-(cyclopropylethynyl)phenyl)-1,3,4-oxadiazol-2(3H)-one]		inhibition at 25 µM: ≤ 25%
Cc1cc(N2CCN(C(=O)c3ccccc3)CC2)ccc1-c1cn(CC2CCCCO2)nn1 (stereo not shown) [Compound I-236]	50 to 75%	IC50: 1000 to 3000 nM
Cc1cc(Cl)c(N2CC(C)(C)C2)cc1-c1cn(C[C@H]2CCCCO2)nn1 [Compound I-431]	≤ 25%	
C=C(c1cncc(C#CC2CC2)c1)c1cn(CC2CCCCO2)nn1 (stereo not shown) [Compound I-427]	25 to 50%	IC50: > 3000 nM
Cc1cc(N2CC(C)(C)C2)c(C#CC2CC2)cc1-c1cn(C[C@H]2CCCCO2)nn1 [Compound I-435]	≤ 25%	
Cc1ccc(-c2ccc(-c3cn(C[C@H]4CCCO4)nn3)cc2)cn1 [Compound I-31]		inhibition at 25 µM: ≤ 25%
Cc1cc(N2CCCC(N(C)C)C2)ccc1-c1cn(CC2CCCCO2)nn1 (stereo not shown) [Compound I-153]	≤ 25%	
Cc1cc(C#CC2CC2)ccc1-c1cn(CC23CC(C)(CO2)C3)nn1 [Compound I-556]		inhibition at 2 µM: ≤ 25%
Cc1cc(C#CC2CC2)ccc1-c1cn(CC2CC(C)(C)O2)nn1 (stereo not shown) [Compound I-197]	50 to 75%	
CC(O)(c1cccc(C#CC2CC2)c1)c1cn(CC2CCCCO2)nn1 (stereo not shown) [Compound I-496]	25 to 50%	
Cc1ccccc1C#Cc1cn(CC2OCC(C)(C)CO2)nn1 [Compound I-791]		inhibition at 2 µM: > 75%
Cc1cc(C#CC2CC2)ccc1-c1cn(CC2OCC(c3ccccc3)CO2)nn1 (stereo not shown) [Compound I-704]	≤ 25%	
Cc1cc(C2CCN(c3ccccn3)CC2)ccc1-c1cn(CC2CCCCO2)nn1 (stereo not shown) [Compound I-583]	≤ 25%	
Cc1cc(N2CCN(Cc3ccccn3)CC2)ccc1-c1cn(CC2OCC(F)(F)CO2)nn1 [Compound I-615]	50 to 75%	
Cc1cc(NC(=O)C2CC2)ccc1-c1cn(CC2CCCCO2)nn1 (stereo not shown) [Compound I-109]	25 to 50%	
Cc1cc(N2CC3(CCCN3c3ccccn3)C2)ccc1-c1cn(CC2OCC(C)(C)CO2)nn1 [Compound I-689]	> 75%	IC50: 1000 to 3000 nM
Cc1cc(C#CC2CC2)ccc1-c1cn(CC2CNC(=O)O2)nn1 (stereo not shown) [Compound I-458]	≤ 25%	
CC1(C)COC(Cn2cc(-c3c(Cl)cc(C#CC4CC4)c[n+]3[O-])nn2)OC1 [Compound I-817]	> 75%	

Structure (SMILES)	inhibition at 10 µM	also measured
Cc1cc(C#CC2CC2)cnc1-c1cn(CC2OCC(F)(F)CO2)nn1 [Compound I-713]	50 to 75%	IC50: 300 to 1000 nM
C(#Cc1ccc(-c2cn(CC3CCCCO3)nn2)cc1)CN1CCCCC1 (stereo not shown) [Compound I-48]		inhibition at 15 µM (HEK293, single concentration 15 μM (designated H)): ≤ 25%
Cc1cc(C#CC2CC2)ccc1-c1cn(C[C@@H]2CCCCO2)nn1 [Compound I-174]		inhibition at 5 µM (HEK293, single concentration 5 μM (designated D)): ≤ 25%; IC50: > 3000 nM
O=c1oc(CC2CCCCO2)nn1Cc1ccc(C#CC2CC2)cc1 (stereo not shown) [Compound I-19]	> 75%	
C(#CC1CC1)c1ccc2c(c1)CCc1cnn(CC3CCCCO3)c1-2 (stereo not shown) [Compound I-329]	25 to 50%	IC50: 300 to 1000 nM
Cc1cc(N2CC(C)(CO)C2)cnc1-c1cn(CCc2ncccn2)nn1 [Compound I-695]	≤ 25%	
Cc1cc(-c2cn(CC3CCCCO3)nn2)nnc1C#CC1CC1 (stereo not shown) [Compound I-434]	≤ 25%	
C(#CC1CC1)c1ccc(-c2cn(CCOCC3COCCO3)nn2)cc1 (stereo not shown) [Compound I-93]	≤ 25%	
Cc1cc(N2CC(F)(F)C2)ccc1-c1cn(CC2CCCCO2)nn1 (stereo not shown) [Compound I-158]	≤ 25%	
Cc1cc(C#CC2CC2)cnc1-c1cn(CC2CCC(C)(C)O2)nn1 (stereo not shown) [Compound I-252]	25 to 50%	
Cc1c(C#CC2CC2)cccc1-c1cn(CC2CCCCO2)nn1 (stereo not shown) [Compound I-80]		inhibition at 25 µM: ≤ 25%
Cc1nc(-c2ccc(C#CC3CC3)cc2)cn1CC1CCCCO1 (stereo not shown) [Compound I-336]		inhibition at 25 µM: ≤ 25%
CC#Cc1ccc(C)c(N(C)c2cn(CC3OCC4(CC4)CO3)nn2)c1 [Compound I-850]	> 75%	
CC(C)Oc1cc(C#CC2CC2)cnc1-c1cn(Cc2ncccn2)nn1 [Compound I-502]	> 75%	IC50: 1000 to 3000 nM
Cc1cc(N2CCN(CC3CC4CCN3CC4)CC2)ccc1-c1cn(CC2CCCCO2)nn1 (stereo not shown) [Compound I-657]	≤ 25%	
Cc1cc(N2CCN(Cc3cncnc3)CC2)ccc1-c1cn(CC2CCCCO2)nn1 (stereo not shown) [Compound I-566]	25 to 50%	
CC(C)Oc1cc(C#CC2CC(F)(F)C2)cnc1-c1cn(CC2CCCCO2)nn1 (stereo not shown) [Compound I-649]		inhibition at 2 µM: > 75%; IC50: 1000 to 3000 nM
CCc1cc(C#CCNC)ccc1-c1cn(CC2OCC(C)(C)CO2)nn1 [Compound I-859]		inhibition at 2 µM: > 75%
Cc1cc(C#CC2CC2)ccc1-c1cn(CCOCC2CCCCO2)nn1 (stereo not shown) [Compound I-85]		inhibition at 25 µM: 25 to 50%
Cc1cc(N2CC3(CCNCC3)C2)ccc1-c1cn(CC2CCCCO2)nn1 (stereo not shown) [Compound I-154]	25 to 50%	
COC(=O)NCC#Cc1cnc(-c2cn(CC3CCCCO3)nn2)c(C)c1 (stereo not shown) [Compound I-573]	> 75%	
COCC#Cc1cnc(-c2cn(CC3OCC(C)(C)CO3)nn2)c(OCC(F)(F)F)c1 [Compound I-847]	≤ 25%	
Clc1cc(C#CC2CC2)cnc1-c1cn(C[C@H]2CCCCO2)nn1 [Compound I-823]	≤ 25%	
